Laboratory results reported in patent US5874529A, “Conformationally constrained backbone cyclized peptide analogs” (Peptor Ltd., priority 1994, dated 1999).
pEC50: −log10 of the molar value. Like-named read-outs stand apart in the source and are kept apart here. Numbered stars: 1 amine (or outer) side, 2 acyl side, 3 side chain; on linkers, the order of the positions; unused ones are H or OH. Bridge positions count the residues as written; N and C are the ends. Square brackets hold non-standard residues; d marks the D form. Peptide text beside a SMILES is read from it. NGly(3-aminopropyl) = O=C(CN(CCCN[*:3])[*:1])[*:2]; N(2-Aminoethyl)Gly = O=C(CN(CCN[*:3])[*:1])[*:2]; N(CH2CH2CO)Gly = O=C(CN(CCC(=O)[*:3])[*:1])[*:2]

Tests used:
BK2 receptors = biological target: T1, BK2 receptors (Cavia porcellus, UniProt O70526); experiment: Bradykinin antagonist assay, guinea-pig ileum contraction
T1 construct: This tissue contains predominantly BK2 receptors; from tissue; host or cells: guinea-pig ileum, longitudinal muscle layer with adhering mesenteric plexus
T1 sequence (O70526 1-372): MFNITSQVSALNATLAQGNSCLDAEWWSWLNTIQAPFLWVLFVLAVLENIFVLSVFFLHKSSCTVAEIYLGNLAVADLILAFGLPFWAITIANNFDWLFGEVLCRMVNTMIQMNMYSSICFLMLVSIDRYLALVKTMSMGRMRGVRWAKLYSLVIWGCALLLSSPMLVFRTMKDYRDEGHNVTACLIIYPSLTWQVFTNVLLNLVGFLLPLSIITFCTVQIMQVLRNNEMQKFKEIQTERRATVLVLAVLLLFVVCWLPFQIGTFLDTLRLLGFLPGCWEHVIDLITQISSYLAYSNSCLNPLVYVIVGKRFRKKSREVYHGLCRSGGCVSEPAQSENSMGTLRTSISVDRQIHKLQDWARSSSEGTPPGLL
Description: The ileum of the guinea-pig was selected as the preparation for the bioassay. This tissue contains predominantly BK2 receptors. The preparation consists of the longitudinal muscle layer with the adhering mesenteric plexus. The isolated preparation was kept in Krebs solution and contractions were measured with an isometric force transducer. […] Atropine (1 μM) was always present.

[1] = In vitro biostability in human serum; assay type: in vitro ADME; settings: 37° C., HPLC determination of peptide degradation over time, compared with PTR 3001, octreotide, SRIF
Description: The in vitro biostability of a SST cyclic peptide analog, PTR 3002, was measured in human serum, and was compared to the same sequence in a non-cyclic peptide analog (PTR 3001), to octreotide (Sandostatin), and to native somatostatin (SRIF). […] The assay was based on HPLC determination of peptide degradation as a function of time at 37° C.

[2] = biological target: T2, Somatostatin Receptor (SSTR) Subtype SSTR 2B (Homo sapiens, UniProt P30874); experiment: Inhibition of radioactive iodinated somatostatin (SRIF-14) binding, CHO cells expressing SSTR 2B; settings: read-out: percent inhibition of radioactive iodinated somatostatin (SRIF-14) binding, SSTR 2B; for inhibition at 1 µM: Conc. 10^-6 M; for inhibition at 0.1 µM: Conc. 10^-7 M; for inhibition at 0.01 µM: Conc. 10^-8 M
T2 construct: expressed in transfected cells; host or cells: CHO cells
T2 sequence (P30874 1-356 isoform P30874-2): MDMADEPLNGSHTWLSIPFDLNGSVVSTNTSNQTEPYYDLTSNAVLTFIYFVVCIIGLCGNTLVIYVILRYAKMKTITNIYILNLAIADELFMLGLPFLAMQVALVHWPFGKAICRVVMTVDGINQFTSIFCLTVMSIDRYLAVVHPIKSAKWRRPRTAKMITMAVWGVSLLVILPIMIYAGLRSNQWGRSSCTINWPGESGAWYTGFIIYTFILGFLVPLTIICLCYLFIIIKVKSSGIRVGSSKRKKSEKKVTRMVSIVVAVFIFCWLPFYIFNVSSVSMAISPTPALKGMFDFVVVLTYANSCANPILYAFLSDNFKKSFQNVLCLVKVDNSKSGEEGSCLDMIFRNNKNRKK
From the text: (§1) The values presented are percent inhibition of radioactive iodinated somatostatin (SRIF-14) binding.

[3] = biological target: T3, Somatostatin Receptor (SSTR) Subtype SSTR 5 (Homo sapiens, UniProt P35346); experiment: Inhibition of radioactive iodinated somatostatin (SRIF-14) binding, CHO cells expressing SSTR 5; settings: read-out: percent inhibition of radioactive iodinated somatostatin (SRIF-14) binding, SSTR 5; for inhibition at 1 µM: Conc. 10^-6 M; for inhibition at 0.1 µM: Conc. 10^-7 M; for inhibition at 0.01 µM: Conc. 10^-8 M
T3 construct: expressed in transfected cells; host or cells: CHO cells
T3 sequence (P35346 whole entry): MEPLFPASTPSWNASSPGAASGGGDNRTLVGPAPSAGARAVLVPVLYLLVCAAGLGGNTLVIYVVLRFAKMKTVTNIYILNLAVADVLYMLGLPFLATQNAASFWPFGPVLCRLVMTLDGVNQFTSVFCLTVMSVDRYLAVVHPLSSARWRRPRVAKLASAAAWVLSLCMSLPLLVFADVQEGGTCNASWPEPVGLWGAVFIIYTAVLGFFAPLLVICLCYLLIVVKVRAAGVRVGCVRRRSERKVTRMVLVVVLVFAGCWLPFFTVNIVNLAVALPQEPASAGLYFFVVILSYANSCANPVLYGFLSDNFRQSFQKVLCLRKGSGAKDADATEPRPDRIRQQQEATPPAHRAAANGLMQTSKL
From the text: as §1

[4] = Lack of toxicity of cyclized peptide analogs in rats; assay type: in vivo
From the text: These two doses are several orders of magnitude higher than those needed to elicit the desired endocrine effect. The peptides dissolved in saline produced no untoward side effects on the central nervous system, cardiovascular system, body temperature, nor on the periphery of the animals.

bradykinin receptors = biological target: T4, bradykinin receptors (Rattus norvegicus, UniProt P25023); experiment: Bradykinin antagonist assay, (3H)dopamine release from PC 12 cells; assay type: cell-based; settings: At 10^-6 M; (3H)dopamine release from PC 12 cells stimulated by bradykinin
T4 construct: PC 12 cells that express bradykinin receptors; endogenous in cells; host or cells: PC12 cells
T4 sequence (P25023 1-396): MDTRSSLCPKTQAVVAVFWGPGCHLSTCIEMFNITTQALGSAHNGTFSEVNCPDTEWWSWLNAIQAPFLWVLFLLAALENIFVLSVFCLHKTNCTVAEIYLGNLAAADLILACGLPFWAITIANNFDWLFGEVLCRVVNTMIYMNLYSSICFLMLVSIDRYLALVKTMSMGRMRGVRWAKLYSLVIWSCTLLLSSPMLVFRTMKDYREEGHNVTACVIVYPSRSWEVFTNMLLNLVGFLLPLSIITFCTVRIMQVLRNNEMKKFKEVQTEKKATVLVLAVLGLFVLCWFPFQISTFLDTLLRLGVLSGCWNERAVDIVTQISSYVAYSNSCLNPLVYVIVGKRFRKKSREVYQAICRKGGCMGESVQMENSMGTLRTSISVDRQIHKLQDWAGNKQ
Description: Novel backbone cyclized peptide analogs of the present invention were assayed in vitro for bradykinin antagonist activity by protection of (^3 H) dopamine release from PC 12 cells that express bradykinin receptors. PC12 cells were grown in Dulbecco Modified Eagle's medium with high glucose, supplemented with 10% horse serum, 5% fetal calf serum, 130 units/ml penicillin and 0.1 mg/ml streptomycin. For experiments, cells were removed from the medium using 1 mmole EDTA and replated on collagen coated-12-well plates and assayed 24 hr later. Release of (^3 H)dopamine was determined as follows: cells were incubated for 1.5 hr at 37° C. with 0.5 ml of growth medium and […] (^3 H)DA (41 Ci/mmole) and […] pargyline followed by extensive washing with medium (3×1 ml) and release buffer consisting of (mM): 130 NaCl; 5 KCl; 25 NaHCO3; 1 NaH2 PO4; 10 glucose and 1.8 CaCl2. In a typical experiment, cells were incubated with 0.5 ml buffer for 5 consecutive incubation periods of 3 min each at 37° C. Spontaneous (^3 H)DA release was measured by collecting the medium released by the cells successively for the first 3 min period. Antagonists were added to the cells 3 min prior to stimulation (at the second period), and stimulation of (^3 H)DA release by 100 nmole of bradykinin are monitored during the 3 period by 60 mmole KCl. The remaining of the (^3 H)DA was extracted from the cells by over night incubation with 0.5 ml 0.1N HCl. (^3 H)DA release during each 3 min period was expressed as a % of the total (^3 H)DA content of the cells. Net evoked release was calculated from (^3 H)DA release during stimulation period after subtracting basal (^3 H)DA release in the preceding baseline period if not indicated otherwise.

[5] = At 10^-6 M, guinea-pig ileum, BK 2×10^-8 M, atropine 1 μM present

Compound | inhibition at 1 µM [2] | inhibition at 0.1 µM [2] | inhibition at 0.01 µM [2] | inhibition at 1 µM [3] | inhibition at 0.1 µM [3] | inhibition at 0.01 µM [3] | inhibition of BK activity (bradykinin receptors) | inhibition of BK activity (BK2 receptors; [5]) | other results
NC(N)=NCCC[C@H](NC(=O)[C@H](Cc1ccccc1)NC(=O)[C@@H]1CCCN1C(=O)[C@H](CO)NC(=O)[C@H](Cc1ccccc1)NC(=O)CNC(=O)[C@@H]1CCCN1C(=O)[C@@H]1CCCN1C(=O)[C@@H](N)CCCN=C(N)N)C(=O)O [BK, Arg^1 -Pro^2 -Pro^3 -Gly^4 -Phe^5 -Ser^6 -Pro^7 -Phe^8 -Arg^9, reference compound] (H-RPPGFSPFR-OH) | – | – | – | – | – | – | – | – | pEC50 (BK2 receptors): 7.70
C[C@@H](O)[C@H](NC(=O)CN1CCNC(=O)CCN(C(=O)[C@H](N)Cc2ccccc2)CC(=O)N[C@@H](Cc2ccccc2)C(=O)N[C@H](Cc2c[nH]c3ccccc23)C(=O)N[C@@H](CCCCN)C(=O)N[C@@H]([C@@H](C)O)C1=O)C(N)=O [PTR 3002] (H-[dF][N(CH2CH2CO)Gly]F[dW]KT[N(2-Aminoethyl)Gly]T-NH2; lactam 2-7) | – | – | – | – | – | – | – | – | in vitro biostability in human serum [1]: as stable as octreotide, is more stable than the corresponding non-cyclic structure, and is much more stable than SRIF
C[C@@H](O)[C@H](NC(=O)CNC(=O)[C@@H](NC(=O)[C@H](CCCCN)NC(=O)[C@@H](Cc1c[nH]c2ccccc12)NC(=O)[C@H](Cc1ccccc1)NC(=O)CNC(=O)[C@H](N)Cc1ccccc1)[C@@H](C)O)C(N)=O [PTR 3003] (H-[dF]GF[dW]KTGT-NH2) | 16% | 3% | 0% | 55% | 20% | 0% | – | – | –
C[C@@H](O)[C@H](NC(=O)CN1CCCNC(=O)CN(C(=O)[C@H](N)Cc2ccccc2)CC(=O)N[C@@H](Cc2ccccc2)C(=O)N[C@H](Cc2c[nH]c3ccccc23)C(=O)N[C@@H](CCCCN)C(=O)N[C@@H]([C@@H](C)O)C1=O)C(N)=O [PTR 3004] | 0% | 0% | 0% | 14% | 0% | 0% | – | – | –
C[C@@H](O)[C@H](NC(=O)CN1CCCNC(=O)CCN(C(=O)[C@H](N)Cc2ccccc2)CC(=O)N[C@@H](Cc2ccccc2)C(=O)N[C@H](Cc2c[nH]c3ccccc23)C(=O)N[C@@H](CCCCN)C(=O)N[C@@H]([C@@H](C)O)C1=O)C(N)=O [PTR 3007] (H-[dF][N(CH2CH2CO)Gly]F[dW]KT[NGly(3-aminopropyl)]T-NH2; lactam 2-7) | 0% | 0% | 0% | 19% | 9% | 0% | – | – | respiratory disturbances, stereotyped behavior, muscle tone ([4]; rats observed for 4 hours post administration): produced no respiratory disturbances, did not result in the appearance of stereotyped behavior, or produce any changes in muscle tone; tolerability ([4]; rats, 1.5 mg/kg, single intraperitoneal application): well tolerated
C[C@@H](O)[C@H](NC(=O)CN1CCC(=O)NCCCN(C(=O)[C@H](N)Cc2ccccc2)CC(=O)N[C@@H](Cc2ccccc2)C(=O)N[C@H](Cc2c[nH]c3ccccc23)C(=O)N[C@@H](CCCCN)C(=O)N[C@@H]([C@@H](C)O)C1=O)C(N)=O [PTR 3010] (H-[dF][NGly(3-aminopropyl)]F[dW]KT[N(CH2CH2CO)Gly]T-NH2; lactam 2-7) | 0% | 0% | 0% | 63% | 26% | 9% | – | – | –
Ada-(D)Arg-Arg-cyclo(N^α (1-(6-aminohexylene)Gly-Hyp-Phe-D-Asp)-D-Phe-Phe-Arg-OH [Example 1] | – | – | – | – | – | – | 30% | – | inhibition of BK activity (BK2 receptors): 24%
Ada-D-Arg-Arg-N^α (6-acetamidohexylene)Gly-Hyp-Phe-D-Asp(NH-Me)-D-Phe-Phe-Arg-OH [Example 2] | – | – | – | – | – | – | 0% | 0% | –
H-D-Arg-Arg-cyclo(N^α (1-(4-propanoyl))Gly-Hyp-Phe-N^α (3-amido-propylene)Gly)-Ser-D-Phe-Phe-Arc-OH [Example 3] | – | – | – | – | – | – | – | 10% | –
H-D-Arg-Arg-cyclo(N^α (4-propanoyl)Gly-Hyp-Phe-N^α (3-amido-propyl)-S-Phe)-Ser-D-Phe-Phe-Arg-OH [Example 4] | – | – | – | – | – | – | 17% | 17% | –
